Patent US11987588B2, “Modulators of the beta-3 adrenergic receptor useful for the treatment or prevention of heart failure and disorders related thereto” (Arena Pharmaceuticals, Inc., priority 2017, dated 2024)

biological target: Beta-3 Adrenergic Receptor (Homo sapiens (Human), UniProt P13945); assay: Homogeneous Time-Resolved Fluorescence (HTRF) cAMP antagonist assay, IC50 determination; format: cell-based; conditions: CHO-K1 cells stably expressing recombinant receptor, isoproterenol at EC90
Method in brief: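 CHO-K1 cells stably expressing the recombinant receptor were preincubated with compound (10-point, 5-fold dilutions; top final typically 10 or 100 μM) in PBS with 1 mM IBMX, then stimulated with isoproterenol at its EC90 for 1 h at room temperature. cAMP was read by HTRF against an on-plate standard curve.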

Sequence of Beta-3 Adrenergic Receptor (P13945 whole entry, species assumed): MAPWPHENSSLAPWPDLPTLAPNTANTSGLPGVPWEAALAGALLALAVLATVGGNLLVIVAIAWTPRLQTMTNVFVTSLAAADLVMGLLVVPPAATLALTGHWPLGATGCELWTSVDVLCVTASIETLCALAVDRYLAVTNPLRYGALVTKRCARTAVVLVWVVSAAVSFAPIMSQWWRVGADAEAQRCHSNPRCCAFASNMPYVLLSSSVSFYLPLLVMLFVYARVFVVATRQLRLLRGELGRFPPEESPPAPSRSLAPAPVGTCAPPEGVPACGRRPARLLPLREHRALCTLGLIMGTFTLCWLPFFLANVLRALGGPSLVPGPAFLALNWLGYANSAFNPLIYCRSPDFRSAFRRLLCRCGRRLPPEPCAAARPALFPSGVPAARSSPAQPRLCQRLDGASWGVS

Compound | IC50
CNS(=O)(=O)c1cccc(OC[C@@H](O)CN[C@H]2COC3(CCN(S(=O)(=O)c4cccc(Cl)c4)CC3)C2)c1 [Compound 592, 3-((S)-3-((R)-8-(3-chlorophenylsulfonyl)-1-oxa-8-azaspiro[4.5]decan-3-ylamino)-2-hydroxypropoxy)-N-methylbenzenesulfonamide] | 21 nM
CNS(=O)(=O)c1cccc(OC[C@@H](O)CN[C@@H]2COC3(CCN(S(=O)(=O)c4cccc(-c5ccc(CN)cc5)c4C)CC3)C2)c1 [Compound 447, 3-((S)-3-((S)-8-(4′-(aminomethyl)-2-methylbiphenyl-3-ylsulfonyl)-1-oxa-8-azaspiro[4.5]decan-3-ylamino)-2-hydroxypropoxy)-N-methylbenzenesulfonamide] | 19.9 nM
CCn1cc(-c2cccc(S(=O)(=O)N3CCC4(CC3)CC(NC[C@H](O)COc3cccc(S(=O)(=O)NC)c3)CO4)c2)cn1 (stereo partly drawn) [Compound 69, 3-((2S)-3-(8-(3-(1-ethyl-1H-pyrazol-4-yl)phenylsulfonyl)-1-oxa-8-azaspiro[4.5]decan-3-ylamino)-2-hydroxypropoxy)-N-methylbenzenesulfonamide] | 21.1 nM
CNS(=O)(=O)c1cccc(OC[C@@H](O)CNC2COC3(CCN(S(=O)(=O)c4cccc(-c5ccc(CNCCF)cc5)c4)CC3)C2)c1 (stereo partly drawn) [Compound 347, 3-((2S)-3-(8-(4′-((2-fluoroethylamino)methyl)biphenyl-3-ylsulfonyl)-1-oxa-8-azaspiro[4.5]decan-3-ylamino)-2-hydroxypropoxy)-N-methylbenzenesulfonamide] | 33.5 nM
CC(=O)NS(=O)(=O)c1cccc(OC[C@@H](O)CNC2COC3(CCN(S(=O)(=O)c4ccc5ccccc5c4)CC3)C2)c1 (stereo partly drawn) [Compound 318, N-(3-((2S)-2-hydroxy-3-(8-(naphthalen-2-ylsulfonyl)-1-oxa-8-azaspiro[4.5]decan-3-ylamino)propoxy)phenylsulfonyl)acetamide] | 2180 nM
C[C@@H](CO)NS(=O)(=O)c1cccc(OC[C@@H](O)CN[C@H]2COC3(CCN(S(=O)(=O)c4cnc5c(c4)N(C)CCO5)CC3)C2)c1 [Compound 432, 3-((S)-2-hydroxy-3-((R)-8-(1-methyl-2,3-dihydro-1H-pyrido[2,3-b][1,4]oxazin-7-ylsulfonyl)-1-oxa-8-azaspiro[4.5]decan-3-ylamino)propoxy)-N—((S)-1-hydroxypropan-2-yl)benzenesulfonamide] | 196 nM
CCNS(=O)(=O)c1cccc(OC[C@@H](O)CN[C@H]2COC3(CCN(S(=O)(=O)c4cnc5cc[nH]c5c4)CC3)C2)c1 [Compound 520, 3-((S)-3-((R)-8-(1H-pyrrolo[3,2-b]pyridin-6-ylsulfonyl)-1-oxa-8-azaspiro[4.5]decan-3-ylamino)-2-hydroxypropoxy)-N-ethylbenzenesulfonamide] | 14.6 nM
CNS(=O)(=O)c1cccc(OC[C@@H](O)CNC2COC3(CCN(S(=O)(=O)c4ccc(OC)cc4)CC3)C2)c1 (stereo partly drawn) [Compound 18, 3-((2S)-2-hydroxy-3-(8-(4-methoxyphenylsulfonyl)-1-oxa-8-azaspiro[4.5]decan-3-ylamino)propoxy)-N-methylbenzenesulfonamide] | 20.8 nM
CCOc1ccc(-c2ccc(CN)cc2)cc1S(=O)(=O)N1CCC2(CC1)C[C@@H](NC[C@H](O)COc1cccc(S(=O)(=O)NC)c1)CO2 [Compound 420, 3-((S)-3-((R)-8-(4′-(aminomethyl)-4-ethoxybiphenyl-3-ylsulfonyl)-1-oxa-8-azaspiro[4.5]decan-3-ylamino)-2-hydroxypropoxy)-N-methylbenzenesulfonamide] | 10.2 nM
CNS(=O)(=O)c1cccc(OC[C@@H](O)CNC2COC3(CCN(S(=O)(=O)c4ccc(-c5ccc(CN)cc5)cc4OC(F)(F)F)CC3)C2)c1 (stereo partly drawn) [Compound 403, 3-((2S)-3-(8-(4′-(aminomethyl)-3-(trifluoromethoxy)biphenyl-4-ylsulfonyl)-1-oxa-8-azaspiro[4.5]decan-3-ylamino)-2-hydroxypropoxy)-N-methylbenzenesulfonamide] | 80.6 nM
COCCCNS(=O)(=O)c1cccc(OC[C@@H](O)CNC2COC3(CCN(S(=O)(=O)c4ccc5ccccc5c4)CC3)C2)c1 (stereo partly drawn) [Compound 75, 3-((2S)-2-hydroxy-3-(8-(naphthalen-2-ylsulfonyl)-1-oxa-8-azaspiro[4.5]decan-3-ylamino)propoxy)-N-(3-methoxypropyl)benzenesulfonamide] | 39.8 nM
C[C@H](O)CNS(=O)(=O)c1cccc(OC[C@@H](O)CN[C@H]2COC3(CCN(S(=O)(=O)c4cnc5c(c4)N(C)CCO5)CC3)C2)c1 [Compound 434, 3-((S)-2-hydroxy-3-((R)-8-(1-methyl-2,3-dihydro-1H-pyrido[2,3-b][1,4]oxazin-7-ylsulfonyl)-1-oxa-8-azaspiro[4.5]decan-3-ylamino)propoxy)-N—((S)-2-hydroxypropyl)benzenesulfonamide] | 578 nM
CNS(=O)(=O)c1cccc(OC[C@@H](O)CNC2COC3(CCN(S(=O)(=O)c4ccc(OC)c(C)c4)CC3)C2)c1 (stereo partly drawn) [Compound 147, 3-((2S)-2-hydroxy-3-(8-(4-methoxy-3-methylphenylsulfonyl)-1-oxa-8-azaspiro[4.5]decan-3-ylamino)propoxy)-N-methylbenzenesulfonamide] | 13 nM
O=S(=O)(NC1CC1)c1cccc(OC[C@@H](O)CNC2COC3(CCN(S(=O)(=O)c4ccc5ccccc5c4)CC3)C2)c1 (stereo partly drawn) [Compound 74, N-cyclopropyl-3-((2S)-2-hydroxy-3-(8-(naphthalen-2-ylsulfonyl)-1-oxa-8-azaspiro[4.5]decan-3-ylamino)propoxy)benzenesulfonamide] | 236 nM
CNS(=O)(=O)c1cccc(OC[C@@H](O)CN[C@H]2COC3(CCN(S(=O)(=O)c4ccc5c(c4)CCCO5)CC3)C2)c1 [Compound 184, 3-((S)-3-((R)-8-(chroman-6-ylsulfonyl)-1-oxa-8-azaspiro[4.5]decan-3-ylamino)-2-hydroxypropoxy)-N-methylbenzenesulfonamide] | 11.9 nM
CNS(=O)(=O)c1cccc(OC[C@@H](O)CN[C@@H]2COC3(CCN(S(=O)(=O)c4cc(-c5ccc(CN)cc5)ccc4OC(F)(F)F)CC3)C2)c1 [Compound 415, 3-((S)-3-((S)-8-(4′-(aminomethyl)-4-(trifluoromethoxy)biphenyl-3-ylsulfonyl)-1-oxa-8-azaspiro[4.5]decan-3-ylamino)-2-hydroxypropoxy)-N-methylbenzenesulfonamide] | 19.5 nM
CNS(=O)(=O)c1cccc(OC[C@@H](O)CNC2COC3(CCN(S(=O)(=O)c4cccc(-c5ccc(CNCC#N)cc5)c4)CC3)C2)c1 (stereo partly drawn) [Compound 338, 3-((2S)-3-(8-(4′-((cyanomethylamino)methyl)biphenyl-3-ylsulfonyl)-1-oxa-8-azaspiro[4.5]decan-3-ylamino)-2-hydroxypropoxy)-N-methylbenzenesulfonamide] | 47.1 nM
CNS(=O)(=O)c1cccc(OC[C@@H](O)CN[C@H]2COC3(CCN(S(=O)(=O)c4cccc(-c5ccc(S(N)(=O)=O)cc5)c4)CC3)C2)c1 [Compound 292, 3′-((R)-3-((S)-2-hydroxy-3-(3-(N-methylsulfamoyl)phenoxy)propylamino)-1-oxa-8-azaspiro[4.5]decan-8-ylsulfonyl)biphenyl-4-sulfonamide] | 30.1 nM
CN(C)CCCNS(=O)(=O)c1cccc(OC[C@@H](O)CNC2COC3(CCN(S(=O)(=O)c4ccc5c(c4)N(C)CCO5)CC3)C2)c1 (stereo partly drawn) [Compound 316, N-(3-(dimethylamino)propyl)-3-((2S)-2-hydroxy-3-(8-(4-methyl-3,4-dihydro-2H-benzo[b][1,4]oxazin-6-ylsulfonyl)-1-oxa-8-azaspiro[4.5]decan-3-ylamino)propoxy)benzenesulfonamide] | 1940 nM
CNS(=O)(=O)c1cccc(OC[C@@H](O)CNC2COC3(CCN(S(=O)(=O)c4cccc(-c5cccc(CO)c5)c4)CC3)C2)c1 (stereo partly drawn) [Compound 118, 3-((2S)-2-hydroxy-3-(8-(3′-(hydroxymethyl)biphenyl-3-ylsulfonyl)-1-oxa-8-azaspiro[4.5]decan-3-ylamino)propoxy)-N-methylbenzenesulfonamide] | 24.1 nM
CCOc1ccc(-c2ccc(CNC(C)C)cc2)cc1S(=O)(=O)N1CCC2(CC1)C[C@@H](NC[C@H](O)COc1cccc(S(=O)(=O)NC)c1)CO2 [Compound 439, 3-((S)-3-((R)-8-(4-ethoxy-4′-((isopropylamino)methyl)biphenyl-3-ylsulfonyl)-1-oxa-8-azaspiro[4.5]decan-3-ylamino)-2-hydroxypropoxy)-N-methylbenzenesulfonamide] | 27.2 nM
CNS(=O)(=O)c1cccc(OC[C@@H](O)CNC2COC3(CCN(c4cc(Cl)ccn4)CC3)C2)c1 (stereo partly drawn) [Compound 433, 3-((2S)-3-(8-(4-chloropyridin-2-yl)-1-oxa-8-azaspiro[4.5]decan-3-ylamino)-2-hydroxypropoxy)-N-methylbenzenesulfonamide] | 352 nM
CNS(=O)(=O)c1cccc(OC[C@@H](O)CNC2COC3(CCN(S(=O)(=O)c4ccc(O)nc4)CC3)C2)c1 (stereo partly drawn) [Compound 395, 3-((2S)-2-hydroxy-3-(8-(6-hydroxypyridin-3-ylsulfonyl)-1-oxa-8-azaspiro[4.5]decan-3-ylamino)propoxy)-N-methylbenzenesulfonamide] | 206 nM
CCNS(=O)(=O)c1cccc(OC[C@@H](O)CNC2COC3(CCN(S(=O)(=O)c4c(C)noc4C)CC3)C2)c1 (stereo partly drawn) [Compound 232, 3-((2S)-3-(8-(3,5-dimethylisoxazol-4-ylsulfonyl)-1-oxa-8-azaspiro[4.5]decan-3-ylamino)-2-hydroxypropoxy)-N-ethylbenzenesulfonamide] | 188 nM
CNS(=O)(=O)c1cccc(OC[C@@H](O)CNC2COC3(CCN(S(=O)(=O)c4ccc5c(c4)CCO5)CC3)C2)c1 (stereo partly drawn) [Compound 330, 3-((2S)-3-(8-(2,3-dihydrobenzofuran-5-ylsulfonyl)-1-oxa-8-azaspiro[4.5]decan-3-ylamino)-2-hydroxypropoxy)-N-methylbenzenesulfonamide] | 36.7 nM
